Data from BigSolDB 2.1.

Cc1cc(=O)[nH]c(=S)[nH]1
solubility (mole fraction)
Conditions | 278.15 K | 283.15 K | 288.15 K | 293.15 K | 298.15 K | 303.15 K | 308.15 K | 313.15 K | 318.15 K | 323.15 K
in DMF | 0.0117 | 0.0144 | 0.0174 | 0.0207 | 0.0252 | 0.0294 | 0.0346 | 0.0396 | 0.0463 | 0.0538
in DMSO | – | – | – | 0.0379 | 0.0432 | 0.0491 | 0.0549 | 0.0619 | 0.0692 | 0.0773
in NMP | 0.013 | 0.0155 | 0.0181 | 0.0212 | 0.0246 | 0.0288 | 0.0334 | 0.0391 | 0.0454 | 0.051
in water | 2.53e-05 | 3.23e-05 | 4.15e-05 | 5.26e-05 | 6.68e-05 | 8.48e-05 | 0.000106 | 0.000129 | 0.000156 | 0.000187
